Results published in patent US5212072A, “Polypeptides complementary to peptides or proteins having an amino acid sequence or nucleotide coding sequence at least partially known and methods of design therefor” (Board of Regents, The University of Texas System, priority 1991, dated 1993).
Several values for one entry are separate records, joined by “and”; a condition that tells them apart may be missing. Equal entries are not always repeated. Where no end group is shown, it is not given here.

Legend:
[1] = tested on: LHRH-stimulated release of LH from pituitary cells; assay: Reverse hemolytic plaque assay, LHRH-stimulated LH release from pituitary cells; assay type: cell-based, rat; conditions: Exp. 1 (Pre); 5x10^-10 M LHRH + peptide 10^-4 M
Procedure: A reverse hemolytic plaque assay (Smith, et al.), Method in Enzymology, 124, p.
Plaques were analyzed by determining plaque area with an image analysis (Bioguant or Image Technology Corp. Model 300) of ^125×-500 × microscopic enlargements.

I^125 ACTH (1-39) = target: T1, I^125 ACTH (1-39) (Homo sapiens, UniProt P01189); assay: 125I-ACTH binding to peptide-coated microtiter wells; conditions: for Bound CPM 125I-ACTH: coated wells; for Bound CPM 125I-ACTH + excess ACTH: excess unlabelled ACTH
T1 construct: I^125 ACTH (1-39) (New England Nuclear Boston, Mass.); purchased New England Nuclear, Boston, Mass
T1 sequence (P01189 138-176 limits assumed): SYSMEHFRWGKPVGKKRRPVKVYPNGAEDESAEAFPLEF
Procedure: Utilizing techniques described in Example 1B, polyvinyl microtiter wells were coated with 3'-5' HTCA from a 1 mM solution thereof or with BSA.
The BSA and 3'-5' HTCA coated wells were washed and then treated with one of three solutions of I^125 ACTH (1-39) (New England Nuclear Boston, Mass.) having different concentrations. After a forty five minute incubation period the solution was removed and the microtiter wells extensively washed. The microtiter wells were separated and assayed for iodine^125 content in a Beckman Gamma 5500 gamma counter. Bound ^125 I-ACTH was measured in duplicate at three concentrations in the absence and presence of excess unlabelled ACTH.
Utilizing the cRNA sequence and HTCA sequence shown in Table 8 of Example 1A, a series of peptides having a carboxy-terminal portion of the HTCA amino acid were synthesized. A pentamer (5-mer) contained the amino acid sequence: H^2 N-Phe-His-Gly-Val-Arg-COOH. A decamer (10-mer) contained the amino acid sequence: H^2 N-[…]COOH. A twenty membered peptide (20-mer) contained the amino acids sequence: H2 N-[…] Val-ArQ-COOH. Each of these peptides was used to coat microtiter wells and the coated wells tested for the ability to hind ^125 I-ACTH as described in Example 1C.
A 24-mer HTCA variant (R-HTCA) with reversed amino acid sequence directionality (amino-terminal and carboxy-terminal ends being reversed) was synthesized and had the following sequence: H2 N-[…] Arg-His-Leu-His-Val-Gly-COOH. The well-coating and ^125 I-ACTH binding procedures were performed as described in Example 1-C and the resultant data shown in Table 11.

angiotensin II receptors = assay: Binding of [125I] angiotensin II to isolated hepatic receptor; set-up: species or system Rabbit; conditions: concentration inhibiting binding of radiolabelled angiotensin II by 50%; 0.25 nM [125I] angiotensin II; 60 minutes 20 C
Procedure: Inhibition of angiotensin II binding to angiotensin II receptors by complementary peptides was tested with measurement through the use of radioactive angiotensin II. Rabbit livers were homogenized, and were centrifuged in order to isolate particles sedimenting between 1,000 and 100,000 xg. Binding activity was solublized with 1% digitonin, followed by ammonium sulfate fractionation between 49 and 65% satuation followed by DEAE- cellulose chromatography at pH 7.5 using a linear gradient between 0.0 and 0.3 M KCl. The partially purified, solubilized receptor preparation bound 17 pmoles of angiotensin II per […] protein when analyzed by Scatchard analysis, indicating a purity of approximately 0.1%.
The standard assay for binding of angiotensin II to the receptor is as follows: The complete system (150 ul) contains 30 mM Tris-HCl, pH 7.5, 2.5 mM K2 EDTA, 0.2 mM PCMS, 0.25 nM [^125 I] angiotensin II ca. 100,000 cpm), 100 ug BSA, 0.25% (V/V) Brij 99 and 30 ug of partially purified receptor. […] Tubes are vortexed and then allowed to stand 10 minutes at 4° C., after which they are centrifuged and their supernatants, containing protein-bound angiotensin II, are counted.
The complete system under these conditions regularly yields about 10,000 cpm of bound radioactivity. […] Residual binding of radioactivity in this control was 35-45%. […]

ACTH (1-24) = target: T2, ACTH (1-24) (Homo sapiens, UniProt P01189); assay: ELISA binding of ACTH (1-24) to HTCA-coated microtiter wells
T2 construct: 10 ug synthetic ACTH (1-24) in PBS-Tween buffer; purchased Organon (West Orange, N.J.); host or cells: chemical synthesis
Procedure: From 1 to 25 micrograms (ug) per well of HTCA or insulin in carbonate-bicarbonate coating buffer were added to 96 well round bottom microtiter plates and incubated at 4° C. for 8 hr. The plates were then washed with phosphate buffered saline PBS)-Tween 20 (Sigma Chemical Co., St. Louis, Mo.) buffer.
To the insulin-coated wells and to some of the HTCA-coated wells was added 10 ug synthetic ACTH (1-24) in PBS-Tween buffer. Control wells (HTCA alone) contained only PBS-Tween. The plates were incubated at room temperature for 2 hr. and then washed three times with PBS-Tween buffer. […] Following 3 washes with PBS-Tween buffer, alkaline phosphatase-conjugated goat anti-rabbit Ig G (Miles Laboratories, Elkharbt, Ind.) in PBS-Tween buffer (1:300 dilution was added. After inculation at room temperature for 1 hr, the plates were washed three times with PBS-Tween buffer and each well was treated with 200 microliters (ul) of p-nitrophenyl phosphate (1 mg/ml in carbonate-bicarbonate buffer) for 11/2 hr. at room temperature. The enzymatic reaction was then stopped by the addition of 3N NaOH (50 ul) to each well and the optical absorbance of p-nitrophenol the alkaline phosphatase product, was measured at 405 nm. The ACTH bound to the coated microtiter wells was measured by this enzyme-linked immunoabsorbent assay (EL1SA). […]

Molecule	Bound CPM 125I-ACTH (I^125 ACTH (1-39); 1:3 dilution 125I-ACTH)	Bound CPM 125I-ACTH + excess ACTH (I^125 ACTH (1-39); 1:3 dilution 125I-ACTH)	Bound CPM 125I-ACTH (I^125 ACTH (1-39); 1:9 dilution 125I-ACTH)	Bound CPM 125I-ACTH + excess ACTH (I^125 ACTH (1-39); 1:9 dilution 125I-ACTH)	Bound CPM 125I-ACTH (I^125 ACTH (1-39); conc 125I-ACTH)	Bound CPM 125I-ACTH + excess ACTH (I^125 ACTH (1-39); conc 125I-ACTH)	other results
C[C@H](N)C(=O)NCC(=O)N[C@H]1CSSC[C@@H](C(=O)O)NC(=O)[C@H](CO)NC(=O)[C@H]([C@@H](C)O)NC(=O)[C@H](Cc2ccccc2)NC(=O)[C@H]([C@@H](C)O)NC(=O)[C@H](CCCCN)NC(=O)[C@H](Cc2c[nH]c3ccccc23)NC(=O)[C@H](Cc2ccccc2)NC(=O)[C@H](Cc2ccccc2)NC(=O)[C@H](CC(N)=O)NC(=O)[C@H](CCCCN)NC1=O [Somatostatin]							plaque area, percentage response to control (5x10^-10 M LHRH) [1]: 103%
APAEVFHGVR [10-mer]	3391 CPM and 2931 CPM	132 CPM and 143 CPM	872 CPM and 1062 CPM	62 CPM and 58 CPM	8,927 CPM and 9,072 CPM	345 CPM and 350 CPM	
Ac-KGVYIHAL-NH2 [CCA-AII (Ac, Am), Ac--LYS--GLY--VAL--TYR--ILE--HIS--ALA--LEU--Am]							ID50 (angiotensin II receptors): 3,100 nM
FHGVR [5-mer, H^2 N-Phe-His-Gly-Val-Arg-COOH]	3,514 CPM and 3,655 CPM	97 CPM and 95 CPM	995 CPM and 993 CPM	56 CPM and 52 CPM	10,252 CPM and 11,388 CPM	233 CPM and 245 CPM	
GLUGLU-VAL-LYS-GLY-VAL-TYR-ILE-HIS-ALA-LEU (EEVKGVYIHAL; printed: GLUGLU-VAL-LYS-GLY-VAL-TYR-ILE-HIS-ALA-LEU) [CCA-AI]							ID50 (angiotensin II receptors): 490 nM
GVHLHRAPLLAHRLAPAEVFHGVR [HTCA]							specific part of ACTH-HTCA binding (ACTH (1-24); wells coated 3.7 nmol/well HTCA, ELISA): about 90%
HRAPLLAHRLAPAEVFHGVR [20-mer]	613 CPM and 625 CPM	113 CPM and 83 CPM	238 CPM and 215 CPM	39 CPM and 48 CPM	1978 CPM and 1768 CPM	229 CPM and 213 CPM	
RMRYLVKATPFGHPFFAAGHFHMG [3'-5' HTCA]	590 CPM	287 CPM and 299 CPM		191 CPM and 183 CPM		616 CPM and 615 CPM	binding of 125I-ACTH to coated peptide (in words) (I^125 ACTH (1-39)): binds
RVGHFVEAPALRHALLPARHLHVG [R-HTCA]	2,997 CPM and 3,209 CPM	140 CPM and 121 CPM	1,101 CPM and 1,161 CPM	65 CPM and 69 CPM	10,392 CPM and 10,709 CPM	303 CPM and 325 CPM	binding of 125I-ACTH to coated peptide (in words) (I^125 ACTH (1-39)): significant affinity for ACTH
insulin: control coating protein [reference compound]							binding of synthetic ACTH (1-24) to coated wells (ACTH (1-24); 10 ug ACTH (1-24), coating 1 to 25 ug/well): nor does ACTH bind
